Test results: patent US20030130180A1, “Utilization of an aminopeptidase inhibitor” (priority 2000, published 2003)

System: Karpas cells
Test: Detection of surface protein combinations of the protein network on untreated (V1) and actinonin-treated (V2) Karpas cells
Type: cell-based
Details: for V2 no. of cells: actinonin-treated Karpas cells
Excerpt: Principally, detecting of the surface protein combinations may comprise procedural steps of an automated method for determining molecular classes, molecular groups or molecular parts in a solid or liquid object according to DE 197 09 348 C. In these steps, surface proteins may be examined and measured in one and the same object, i.e. in a sample of immune cells and/or tumor cells for example, by sequentially applying reagent solutions Yn (n=1,2,3, . . . N) by means of an automated apparatus, said procedural steps being: I. taking a first reagent solution Y1 from a vessel containing the reagent solution, II. applying said reagent solution Y1 to the object which is on an object slide, III. allowing the reagent solution to react for an automatically set period of time, IV. recording at least one individual labeling pattern of the object previously labeled with said first reagent solution Y1, V. repeating steps I-IV by applying said first reagent solution Y1 or a second reagent solution Y2 or a mixture of said first and second reagent solutions, and VI. repeating steps I to V with further reagent solutions Yn (n=2,3, . . . N) or a mixture thereof and whereby the labeling distribution patterns obtained in each cycle of the method are turned into a complex molecular combination pattern of the object to be examined by computer-aided image overlay. From this combination pattern, information may be gained on the presence of the above mentioned proteins, thus also allowing detection of the surface protein combinations, if the reagent solutions used contain labeled substances directed against the proteins in question. In numerous examinations, it was possible to identify the 30 cell surface proteins already listed above which belong to a specific protein network controlling the early polarization stages of tumor cells and immune cells. In a further examination, surface protein combinations of this protein network of Karpas cells were detected, both in untreated form and after treatment with the aminopeptidase inhibitor actinonin. For this purpose, two groups V1 and V2 of Karpas cells were formed, with the cells of group Vl remaining untreated, while the cells of group V2 were treated with actinonin. Table 2 lists those surface protein combinations which are present both in the actinonin-treated cells and in the untreated cells. However, this table and the further tables 3 and 4 only give examples of 18 of the 30 proteins, with the detected proteins being designated 1 and the non-detected proteins being designated 0. The proteins are continuously numbered 1 to 18, with the nomenclature being notable from table 1. [table] The cell numbers stated in tables 2 to 4 refer to each 1,000 cells examined in groups V1 and V2. Table 3 lists the surface protein combinations which only occur in the untreated Karpas cells and are never found in the actinonin-treated Karpas cells. The number of protein combinations listed in this table 3 amounts to 131. Finally, table 4 exclusively lists those surface protein combinations which occur exclusively in the actinonin-treated Karpas cells. It may be gathered from tables 2 to 4 that, if one examines merely 18 proteins of the 30 proteins, a total of 394 different surface protein combinations will occur, with a total of 334 different combinations occurring in the untreated cells and a total of 263 different combinations being detected in the treated cells.

CCCCC[C@H](CC(=O)NO)C(=O)N[C@H](C(=O)N1CCC[C@H]1CO)C(C)C [actinonin]
V2 No. of cells In 1/1000 (actinonin-treated Karpas cells (V2), surface protein combination No. 118, binary code 000100010100000000): 0.0 1/1000 | V2 No. of cells In 1/1000 (actinonin-treated Karpas cells (V2), surface protein combination No. 119, binary code 000100010001011000): 0.0 1/1000 | V2 No. of cells In 1/1000 (actinonin-treated Karpas cells (V2), surface protein combination No. 120, binary code 000100001001001000): 0.0 1/1000 | V2 No. of cells In 1/1000 (actinonin-treated Karpas cells (V2), surface protein combination No. 121, binary code 000100000101001000): 0.0 1/1000 | V2 No. of cells In 1/1000 (actinonin-treated Karpas cells (V2), surface protein combination No. 122, binary code 000100000101000000): 0.0 1/1000 | V2 No. of cells In 1/1000 (actinonin-treated Karpas cells (V2), surface protein combination No. 123, binary code 000100000011000000): 0.0 1/1000 | V2 No. of cells In 1/1000 (actinonin-treated Karpas cells (V2), surface protein combination No. 124, binary code 000000011101011000): 0.0 1/1000 | V2 No. of cells In 1/1000 (actinonin-treated Karpas cells (V2), surface protein combination No. 125, binary code 000000011000001000): 0.0 1/1000 | V2 No. of cells In 1/1000 (actinonin-treated Karpas cells (V2), surface protein combination No. 126, binary code 000000010100000100): 0.0 1/1000 | V2 No. of cells In 1/1000 (actinonin-treated Karpas cells (V2), surface protein combination No. 127, binary code 000000010000011000): 0.0 1/1000 | V2 No. of cells In 1/1000 (actinonin-treated Karpas cells (V2), surface protein combination No. 128, binary code 000000010000000100): 0.0 1/1000 | V2 No. of cells In 1/1000 (actinonin-treated Karpas cells (V2), surface protein combination No. 129, binary code 000000001011000000): 0.0 1/1000 | V2 No. of cells In 1/1000 (actinonin-treated Karpas cells (V2), surface protein combination No. 130, binary code 000000000001001100): 0.0 1/1000 | V2 No. of cells In 1/1000 (actinonin-treated Karpas cells (V2), surface protein combination No. 131, binary code 000000000001000100): 0.0 1/1000 | V2 no. of cells In 1/1OOO, total (actinonin-treated Karpas cells (V2), total over all 203 protein combinations of Table 2): 990.9 1/1OOO | V2 No. of cells In 1/1000, total (actinonin-treated Karpas cells (V2), total over the 131 surface protein combinations of Table 3): 0 1/1000 | V2 no. of cells (protein code No. 1, proteins 1-18 binary 000000000000000000): 153.2 1/1OOO | V2 no. of cells (protein code No. 2, proteins 1-18 binary 001000010101001000): 91.9 1/1OOO | V2 no. of cells (protein code No. 3, proteins 1-18 binary 001000010001000000): 57.6 1/1OOO | V2 no. of cells (protein code No. 4, proteins 1-18 binary 000000010001000000): 62.2 1/1OOO | V2 no. of cells (protein code No. 5, proteins 1-18 binary 001000010001001000): 37.9 1/1OOO | V2 no. of cells (protein code No. 6, proteins 1-18 binary 001000010101000000): 44.3 1/1OOO | V2 no. of cells (protein code No. 7, proteins 1-18 binary 001100010101001000): 37.6 1/1OOO | V2 no. of cells (protein code No. 8, proteins 1-18 binary 000000010000000000): 41.8 1/1OOO | V2 no. of cells (protein code No. 9, proteins 1-18 binary 001000010111001000): 31.4 1/1OOO | V2 no. of cells (protein code No. 10, proteins 1-18 binary 001100010111011000): 29.7 1/1OOO | V2 no. of cells (protein code No. 11, proteins 1-18 binary 000000000001000000): 29.3 1/1OOO | V2 no. of cells (protein code No. 12, proteins 1-18 binary 001100010111001000): 24.2 1/1OOO | V2 no. of cells (protein code No. 13, proteins 1-18 binary 001000010011001000): 15.4 1/1OOO | V2 no. of cells (protein code No. 14, proteins 1-18 binary 000000010101000000): 22.3 1/1OOO | V2 no. of cells (protein code No. 15, proteins 1-18 binary 101100010111011000): 17.3 1/1OOO | V2 no. of cells (protein code No. 16, proteins 1-18 binary 001000010111011000): 15.0 1/1OOO | V2 no. of cells (protein code No. 17, proteins 1-18 binary 001000010101011000): 15.5 1/1OOO | V2 no. of cells (protein code No. 18, proteins 1-18 binary 001100010101011000): 9.7 1/1OOO | V2 no. of cells (protein code No. 19, proteins 1-18 binary 000000010101001000): 13.4 1/1OOO | V2 no. of cells (protein code No. 20, proteins 1-18 binary 000000000100000000): 14.5 1/1OOO | V2 no. of cells (protein code No. 21, proteins 1-18 binary 001100010001001000): 6.3 1/1OOO | V2 no. of cells (protein code No. 22, proteins 1-18 binary 001000010011000000): 6.7 1/1OOO | V2 no. of cells (protein code No. 23 (second line so numbered), proteins 1-18 binary 000000000101000000): 11.0 1/1OOO | V2 no. of cells (protein code No. 23, proteins 1-18 binary 001000000001000000): 7.4 1/1OOO | V2 no. of cells (protein code No. 24, proteins 1-18 binary 001000010000000000): 5.7 1/1OOO | V2 no. of cells (protein code No. 25, proteins 1-18 binary 000000000000001000): 7.3 1/1OOO | V2 no. of cells (protein code No. 27, proteins 1-18 binary 010000001100000000): 7.5 1/1OOO | V2 no. of cells (protein code No. 28, proteins 1-18 binary 000000010100000000): 8.9 1/1OOO | V2 no. of cells (protein code No. 29, proteins 1-18 binary 000000010001001000): 7.0 1/1OOO | V2 no. of cells (protein code No. 30, proteins 1-18 binary 001100010011001000): 4.0 1/1OOO | V2 no. of cells (protein code No. 31, proteins 1-18 binary 101000010111011000): 2.8 1/1OOO | V2 no. of cells (protein code No. 32, proteins 1-18 binary 000000001000000000): 6.1 1/1OOO | V2 no. of cells (protein code No. 33, proteins 1-18 binary 001000010111000000): 5.3 1/1OOO | V2 no. of cells (protein code No. 34, proteins 1-18 binary 001000010011011000): 3.2 1/1OOO | V2 no. of cells (protein code No. 35, proteins 1-18 binary 001000010001011000): 4.8 1/1OOO | V2 no. of cells (protein code No. 37, proteins 1-18 binary 010000001100001000): 3.9 1/1OOO | V2 no. of cells (protein code No. 38 (first line so numbered), proteins 1-18 binary 000000001100000000): 5.4 1/1OOO | V2 no. of cells (protein code No. 38 (second line so numbered), proteins 1-18 binary 001000011101001000): 4.3 1/1OOO | V2 no. of cells (protein code No. 39, proteins 1-18 binary 000000010011000000): 2.5 1/1OOO | V2 no. of cells (protein code No. 40, proteins 1-18 binary 001000000101000000): 4.7 1/1OOO | V2 no. of cells (protein code No. 41, proteins 1-18 binary 001100010011011000): 4.0 1/1OOO | V2 no. of cells (protein code No. 42, proteins 1-18 binary 001100010101000000): 0.8 1/1OOO | V2 no. of cells (protein code No. 43, proteins 1-18 binary 001000000000000000): 2.8 1/1OOO | V2 no. of cells (protein code No. 44, proteins 1-18 binary 001000011101000000): 3.7 1/1OOO | V2 no. of cells (protein code No. 45, proteins 1-18 binary 001100010001000000): 0.6 1/1OOO | V2 no. of cells (protein code No. 46, proteins 1-18 binary 001000011001000000): 2.5 1/1OOO | V2 no. of cells (protein code No. 47, proteins 1-18 binary 010000001100001100): 2.2 1/1OOO | V2 no. of cells (protein code No. 48, proteins 1-18 binary 101100010101011000): 2.2 1/1OOO | V2 no. of cells (protein code No. 49, proteins 1-18 binary 001000010100000000): 2.7 1/1OOO | V2 no. of cells (protein code No. 50, proteins 1-18 binary 011000011101001000): 2.4 1/1OOO | V2 no. of cells (protein code No. 51, proteins 1-18 binary 001000011111001000): 2.0 1/1OOO | V2 no. of cells (protein code No. 52, proteins 1-18 binary 001100010001011000): 1.0 1/1OOO | V2 no. of cells (protein code No. 53, proteins 1-18 binary 001000010000001000): 1.0 1/1OOO
